Series [1] addresses T1, 20S Human Erythrocyte Proteasome (HEP) (Homo sapiens, UniProt P20618+P28074).
T1 construct: 20S Human Erythrocyte Proteasome (HEP), purchased from Immatics Biotechnologies Inc; purchased Immatics Biotechnologies Inc., Tübingen, Germany; host or cells: human erythrocytes (natural source)
Description: Chymotrypsin-like activity of 20S Human Erythrocyte Proteasome (HEP), IC50 determination. The series is classed as biochemical. As to conditions: assay of Example C, inhibition of HEP. In short, it runs like this: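 20S proteasome at 0.2 μg/mL (about 0.6 nM catalytic sites) in 20 mM Tris with 0.04% SDS, preincubated 15 min at 37° C with inhibitor before Suc-LLVY-AMC (100 μM final). AMC fluorescence read in the linear range; triplicates, IC50 from concentration series.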

The target of series [2] is T2, proteasome in Molt-4 cells (human leukemia) (Homo sapiens, UniProt P20618+P28074).
T2 sequence (P28074 60-263): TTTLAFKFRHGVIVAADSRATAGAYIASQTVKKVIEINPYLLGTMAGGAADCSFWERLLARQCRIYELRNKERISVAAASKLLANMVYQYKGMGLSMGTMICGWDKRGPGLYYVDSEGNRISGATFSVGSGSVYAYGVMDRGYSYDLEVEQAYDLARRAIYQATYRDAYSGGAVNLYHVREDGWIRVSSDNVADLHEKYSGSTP
T2 sequence (P20618 29-241): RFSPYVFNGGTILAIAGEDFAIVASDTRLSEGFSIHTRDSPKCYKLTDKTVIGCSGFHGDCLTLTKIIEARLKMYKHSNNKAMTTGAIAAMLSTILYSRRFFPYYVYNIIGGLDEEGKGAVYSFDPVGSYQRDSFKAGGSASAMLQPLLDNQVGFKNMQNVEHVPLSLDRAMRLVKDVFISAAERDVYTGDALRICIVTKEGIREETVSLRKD
The series is classed as cell-based. As to conditions: assay of Example E, inhibition of MOLT4; read-out: MOLT4 (EC50). In short, it runs like this:
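Intact Molt-4 cells (6×10^6 cells/mL) in HEPES-buffered saline were preincubated with inhibitor 15 min at 37 °C, then given cell-permeable MeOSuc-FLF-AFC at 25 μM final.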

Compound `CCCCc1ccc(C(=O)N[C@@H](CNC(=O)c2ccc(C)cc2)C(=O)N[C@@H](CC(C)C)B2O[C@@H]3C[C@@H]4C[C@@H](C4(C)C)[C@]3(C)O2)cc1` [D.24.6, 4-butylbenzamide, N-[(1S)-1-[[[(1R)-1-[(3aS,aS,6S,7aR)-hexahydro-3a,5,5-trimethyl-4,6-methano-1,3,2-benzodioxaborol-2-yl-]-3-methylbutyl]amino]carbonyl]-2-[(4-methylphenyl)carbonylamino]ethyl]-] gave a melting point of 150 to 152 °C. This compound came in with an IC50 in series [1] below 10 nM. In series [2], the EC50 was below 200 nM.

`CCCCc1ccc(C(=O)N[C@@H](CNS(C)(=O)=O)C(=O)N[C@@H](CC(C)C)B(O)O)cc1` [E.5.3, Boronic acid, [(1R)-1-[[(2S)-3-(methanesulfamido)-2-[(4-butyl)-benzoylamino]-1-oxopropyl]amino]-3-methylbutyl]] gave a melting point of 120 to 123 °C. In series [1], this compound displayed an IC50 below 100 nM. In series [2], the EC50 lay in the range of 200 to 2000 nM.

For `CCCCc1ccc(C(=O)N[C@@H](CNC(C)=O)C(=O)N[C@@H](CC(C)C)B(O)O)cc1` [E.5.8], the melting point lay in the range of 107 to 109 °C. The same compound showed an IC50 in series [1] below 10 nM. Further, the EC50 in series [2] is below 200 nM.

Consider `CCCCc1ccc(C(=O)N[C@@H](CNC(=O)OCc2ccccc2)C(=O)N[C@@H](CC(C)C)B2O[C@@H]3C[C@@H]4C[C@@H](C4(C)C)[C@]3(C)O2)cc1` [D.16.6], for which the melting point was in the range of 95 to 100 °C. The compound also showed an IC50 in series [1] below 10 nM. The EC50 in series [2] was below 200 nM.

`CCCCc1ccc(C(=O)N[C@@H](CNC(=O)c2ccc(S(C)(=O)=O)cc2)C(=O)N[C@@H](CC(C)C)B(O)O)cc1` [E.5.20, Boronic acid, [(1R)-1-[[(2S)-3-[(4-methylsulfonyl)benzoylamino]-2-[(4-butylbenzoylamino)]-1-oxopropyl]amino]-3-methylbutyl]] returned a melting point of 168 to 170 °C. In series [1], the IC50 was below 10 nM. The EC50 in series [2] is below 200 nM.

For `CCCCc1ccc(C(=O)N[C@@H](CNC(=O)c2cccn2C)C(=O)N[C@@H](CC(C)C)B(O)O)cc1` [E.5.16, Boronic acid, [(1R)-1-[[(2S)-3-[1-N-methyl-2-pyrrolylcarbonylamino]-2-[(4-butylbenzoyl)amino]-1-oxopropyl]amino]-3-methylbutyl]], the melting point lay in the range of 130 to 135 °C. In series [1], the IC50 was below 10 nM. The EC50 in series [2] is below 200 nM.

For the compound `CCCCc1ccc(C(=O)N[C@@H](CNC(=O)OCc2ccccc2)C(=O)N[C@@H](CC(C)C)B(O)O)cc1` [E.5.6], the melting point lay in the range of 92 to 96 °C. In addition, the concentration for half-maximal inhibition (IC50) in series [1] is below 10 nM. Moreover, in series [2], the EC50 is below 200 nM.

The record behind these values is US8546608B2, “Proteasome inhibitors and methods of using the same” (Cephalon, Inc., priority 2003, dated 2013).
